Laboratory results reported in patent US20260306460A1, “COMPOSITION FOR REMOVING AND INHIBITING SENESCENT CELLS, AND USES THEREOF” (LIFECEUTIX CO., LTD., priority 2023, published 2026).

How the values were obtained:
Format in all cases: in vivo, mouse
[1] = system: naturally aged C57BL6J mice; experiment: Joint aging (arthritis marker mRNA) in naturally aged mice, Example 21-12, Table 27
Description: (§1) 22-month-old female C57BL6J mice (KRIBB Laboratory Animal Resource Center) were acclimated to the experimental environment for one week, after which the aged mice were randomly assigned to experimental and control groups. Eight-week-old, non-aged mice served as controls. LX-403 was mixed in a 10% ethanol solution of PEG400 and administered orally at a concentration of 25 mg/kg daily for 21 days, or administered to the skin, joints, or eyes at a concentration of 1 μM. LX-1801 was mixed in distilled water with 4% DMSO, 30% PEG300, and 5% Tween80 and administered to the skin, joints, or eyes at a concentration of 0.4 μM daily for 21 days. LX-2001 was mixed in PBS and administered to the skin, joints, or eyes at a concentration of […] daily for 21 days. LX-2002 was mixed in distilled water with 4% DMSO, 30% PEG300, and 5% Tween80 and administered to the skin, joints, or eyes at a concentration of 2 μM daily for 21 days. […] LX-2005 was mixed in distilled water with 4% DMSO, 30% PEG300, and 5% Tween80 and administered to the skin, joints, or eyes at a concentration of 90 μM daily for 21 days. LX-2007 was mixed in distilled water with 4% DMSO, 30% PEG300, and 5% Tween80 and administered to the skin, joints, or eyes at a concentration of 90 μM daily for 21 days. […] LX-3002 was mixed in distilled water with 4% DMSO, 30% PEG300, and 5% Tween80 and administered orally at a concentration of 10 mg/kg daily for 21 days. […] LX-5411 was mixed in 5% PBS and administered orally at a concentration of 10 mg/kg daily for 21 days or administered to the skin, joints, or eyes at a concentration of 3 μM. LX-5701 was mixed in PBS and administered orally at a concentration of 360 mg/kg daily for 21 days. LX-6807 was mixed in saline and administered intraperitoneally at a concentration of 1 mg/kg daily for 21 days. LX-2101 or LX-2102 was mixed in PBS solution with 5% DMSO and administered intraperitoneally at a concentration of 20 mg/kg or 10 mg/kg, respectively, daily for 21 days. The control group received only the solution in the same volume. After the end of drug administration, the methods described in each example below were performed.
RNA was extracted from joint tissue as described in Example 7-2 of WO2023-085787 A1, and qRT-PCR was performed using the synthesized cDNA. […] To analyze joint pain due to joint aging, hotplate analysis was performed. Specifically, thermal pain thresholds were measured using a hot plate. After acclimating mice to a temperature of 30° C. for 10 minutes, the time required for hind paw licking or jumping responses to occur at 55° C. was measured. To prevent tissue damage, the response was measured for less than 30 seconds, and the average value was used from five measurements.

[2] = system: obesity-induced aged C57BL6J mice; experiment: Anxiety, depression, lethargy (open field test) in obesity-aged mice, Example 23-4, Table 44; conditions: for geriatric depression: obesity-aged mice; for Open Field Test Time in Center: obesity-induced aged mice, daily for 21 days, activity after obesity-induced aging calculated as 100%
How it was run: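 Male C57BL6J mice were made obese on a high-fat diet from 15 weeks of age. Compounds were given daily for 21 days: LX-3002 10 mg/kg orally, LX-5701 360 mg/kg orally, LX-6807 1 mg/kg intraperitoneally, with vehicle-treated controls. Open-field activity was then expressed relative to obese untreated mice set at 100%.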

[3] = system: naturally aged C57BL6J mice; experiment: Frailty (open field, wire hanging, grip strength, muscle and fat tissue) in naturally aged mice, Example 21-7, Table 23; conditions: for Fat Mass (g): inguinal and epididymal fat, untreated aged 0.82 (±0.19); for Muscle Mass (g): quadriceps and gastrocnemius, untreated aged 0.64 (±0.06); for Grip Sterenght Test Strength (%) / Open Field Test Time in Center (%) / Wire Hanging Test Time (%): untreated aged = 100%
Description: as §1
To analyze frailty due to aging in mice, an activity test (open field test), an endurance test (wire hanging test), and a muscle strength and grip strength test (grip strength test) were performed using the same method as in Example 7-7 of WO2023-085787 A1. The table below quantitatively represents the results of activity, endurance, muscle strength, and grip strength, which are criteria for assessing frailty, under conditions in which aging was induced and the test compound was not administered or administered. The amount of each evaluation after aging was calculated as 100% and compared with the amount of each evaluation after treatment with the drug of the present invention.

[4] = system: cigarette smoke-induced COPD C57BL6J mice; experiment: Cigarette smoke COPD in mice (p16, IL6 mRNA, alveoli size), Example 25, Table 49; conditions: for Airspace enlargement: average size of alveoli, untreated 38.7 (±0.6); for IL6 mRNA / p16 mRNA: lung, daily for 21 days, untreated 100%
Description: Eight-week-old male C57BL6J mice (KRIBB Laboratory Animal Resource Center) were acclimated to the experimental environment for one week. After exposure to standard cigarette smoke (costa monitoring cigarette 7) for 5 hours per day, 5 days per week for 6 months, chronic obstructive pulmonary disease (COPD) was induced. Mice with induced COPD were randomly assigned to experimental and control groups. […] LX-3002 was mixed in distilled water with 4% DMSO, 30% PEG300, 5% tween80 and administered orally at a concentration of 10 mg/kg daily for 21 days. LX-5701 was mixed in PBS and administered orally at a concentration of 360 mg/kg daily for 21 days. LX-6807 was mixed in saline and administered intraperitoneally at a concentration of 1 mg/kg daily for 21 days. The control group received only the solution in the same volume. After the end of drug administration, mice were sacrificed in the same manner as in Example 7-2 of WO2023-085787 A1, RNA was extracted from lung tissue, and qRT-PCR (quantitative real-time PCR) was performed and analyzed using the synthesized cDNA. […] The amount of mRNA after aging was calculated as 100%, and the results after treatment with the test compound were compared. Furthermore, paraffin sections were stained with hematoxylin/eosin (H/E), and the size of alveoli was measured under a light microscope to assess the degree of lung function impairment.

Compound	Col2a1 mRNA (fold) [1]	geriatric depression [2]	Fat Mass (g) [3]	Muscle Mass (g) [3]	Grip Sterenght Test Strength (%) [3]	Open Field Test Time in Center (%) [3]	Wire Hanging Test Time (%) [3]	Airspace enlargement [4]	IL6 mRNA [4]	p16 mRNA [4]	Open Field Test Time in Center [2]
O=C(C(C[N+](=O)[O-])=NO)N1CCN(C(c2ccc(Cl)cc2)c2ccc(Cl)cc2)CC1 [LX-403]	2.9 (±0.2) fold	–	–	–	–	–	–	–	–	–	–
COC(=O)c1ccc([C@H]2c3[nH]c4ccccc4c3C[C@H](C(=O)OC)N2C(=O)CCl)cc1 [LX-405]	–	similarly improving geriatric depression	–	–	–	–	–	–	–	–	–
C[C@@H]1CC[C@@]23C[C@H](O)C(=O)[C@@]2(O)[C@]1(C)[C@H](OC(=O)CCl)C[C@@H](C1=CCn2c(=O)n(-c4ccccc4)c(=O)n2C1)[C@@H]3C [LX-1801, (2S,3aS,4S,5R,7R,8S,8aS,11R)-7-(1,3-Dioxo-2-phenyl-2,3,5,8-tetrahydro-1H-[1,2,4]triazolo[1,2-a]pyridazin-6-yl)-2,3a-dihydroxy-4,8,11-trimethyl-3-oxooctahydro-1H-4,8a-propanoazulen-5-yl 2-Chloroacetate]	2.6 (±0.2) fold	–	–	–	–	–	–	–	–	–	–
C[C@H]1[C@H](C)CC[C@]2(C(=O)O)CC[C@]3(C)C(=CC[C@@H]4[C@@]5(C)CC[C@H](O)C(C)(C)[C@@H]5CC[C@]43C)[C@H]12 [LX-2001, Ursolic acid]	1.8 (±0.2) fold	–	–	–	–	–	–	–	–	–	–
C[C@H]1[C@H](C)CC[C@]2(C(=O)O)CC[C@]3(C)C(=CC[C@@H]4[C@@]5(C)C[C@@H](O)[C@H](O)C(C)(C)[C@@H]5CC[C@]43C)[C@H]12 [LX-2002, Corosolic acid]	1.7 (±0.3) fold	–	–	–	–	–	–	–	–	–	–
CC1(C)CC[C@]2(C(=O)O)CC[C@]3(C)C(=CC[C@@H]4[C@@]5(C)CC[C@H](O)C(C)(C)[C@@H]5CC[C@]43C)[C@@H]2C1 [LX-2003, Oleanolic acid]	1.9 (±0.2) fold	–	–	–	–	–	–	–	–	–	–
C=C(C)[C@@H]1CC[C@]2(C(=O)O)CC[C@]3(C)[C@H](CC[C@@H]4[C@@]5(C)CC[C@H](O)C(C)(C)[C@@H]5CC[C@]43C)[C@@H]12 [LX-2005, Betulinic acid]	2.2 (±0.1) fold	–	–	–	–	–	–	–	–	–	–
CC1(C)C=C2[C@H]3CC[C@@H]4[C@@]5(C)CCC(=O)C(C)(C)[C@@H]5CC[C@@]4(C)[C@]3(C)CC[C@@]2(C(=O)O)CC1 [LX-2007, Moronic acid]	1.6 (±0.2) fold	–	–	–	–	–	–	–	–	–	–
CC1(C)CC[C@]2(NC(=O)C(C)(F)F)CC[C@]3(C)[C@H](C(=O)C=C4[C@@]5(C)C=C(C#N)C(=O)C(C)(C)[C@@H]5CC[C@]43C)[C@@H]2C1 [LX-2101, Omaveloxolone]	1.9 (±0.2) fold	similarly improving geriatric depression	1.15 (±0.09) g	0.72 (±0.05) g	121 (±4.1) %	145 (±10.2) %	117 (±3.8) %	–	–	–	–
COC(=O)[C@]12CCC(C)(C)C[C@H]1[C@H]1C(=O)C=C3[C@@]4(C)C=C(C#N)C(=O)C(C)(C)[C@@H]4CC[C@@]3(C)[C@]1(C)CC2 [LX-2102, Bardoxolone methyl]	–	–	0.97 (±0.16) g	0.76 (±0.05) g	116 (±9.2) %	109 (±8.6) %	120 (±7.5) %	–	–	–	–
CCCC\C=C/C=C/C=C\CCCCCCCC(=O)O [LX-2707, Punicic acid]	–	similarly improving geriatric depression	0.98 (±0.20) g	0.67 (±0.07) g	117 (±3.6) %	198 (±19.4) %	135 (±13.3) %	36.4 (±1.9) μm	76 (±6.7) %	78 (±5.5) %	224 (±12.8) %
COC(=O)[C@H]1Cc2c([nH]c3ccccc23)[C@H](c2ccc(S(C)(=O)=O)cc2)N1C(=O)CCl [LX-5401, methyl (1S,3R)-2-(2-chloroacetyl)-1-(4-(methylsulfonyl)phenyl)-2,3,4,9-tetrahydro-1H-pyrido[3,4-b]indole-3-carboxylate]	–	similarly improving geriatric depression	–	–	–	–	–	–	–	–	–
C#CC(=O)N1[C@@H](CCCC)Cc2cc(OC)ccc2[C@@H]1c1ccc(NC23CC4CC(CC(C4)C2)C3)cc1 [LX-5411]	3.3 (±0.3) fold	similarly improving geriatric depression	–	–	–	–	–	–	–	–	–
O=C1C2CCN(CC2)C1CNC(=O)C(F)(F)F (stereo not drawn) [LX-5701]	2.7 (±0.3) fold	–	0.88 (±0.1) g	0.66 (±0.1) g	119 (±3.8) %	259 (±38.6) %	141 (±7.3) %	31.9 (±2.4) μm	59 (±16.8) %	70 (±7.8) %	217 (±20.1) %
Cc1cccc([C@H](C)c2cnc[nH]2)c1C [LX-6807, Dexmedetomidine]	3.5 (±0.2) fold	similarly improving geriatric depression	1.08 (±0.15) g	0.74 (±0.04) g	128 (±6.2) %	269 (±13.3) %	156 (±16.4) %	30.4 (±1.5) μm	48 (±5.6) %	68 (±2.4) %	202 (±18.2) %
Tocofersolan [LX-3001]	–	–	0.95 (±0.12) g	0.70 (±0.1) g	115 (±4.7) %	187 (±12.9) %	126 (±11.4) %	37.1 (±2.7) μm	79 (±9.9) %	83 (±5.0) %	168 (±11.9) %
